Consider 31 compounds from patent US10934298B2, “Substituted pyrazolo[1,5-a]pyrimidines for the treatment of medical disorders” (BIAL—BioTech Investments, Inc., priority 2016, dated 2021).

In the assay the target is T1, glucocerebrosidase (Gcase) (Homo sapiens, UniProt P04062).
T1 construct: micellar solution containing 10 nM GCase and 100 nM saposin C
T1 sequence (P04062 40-536): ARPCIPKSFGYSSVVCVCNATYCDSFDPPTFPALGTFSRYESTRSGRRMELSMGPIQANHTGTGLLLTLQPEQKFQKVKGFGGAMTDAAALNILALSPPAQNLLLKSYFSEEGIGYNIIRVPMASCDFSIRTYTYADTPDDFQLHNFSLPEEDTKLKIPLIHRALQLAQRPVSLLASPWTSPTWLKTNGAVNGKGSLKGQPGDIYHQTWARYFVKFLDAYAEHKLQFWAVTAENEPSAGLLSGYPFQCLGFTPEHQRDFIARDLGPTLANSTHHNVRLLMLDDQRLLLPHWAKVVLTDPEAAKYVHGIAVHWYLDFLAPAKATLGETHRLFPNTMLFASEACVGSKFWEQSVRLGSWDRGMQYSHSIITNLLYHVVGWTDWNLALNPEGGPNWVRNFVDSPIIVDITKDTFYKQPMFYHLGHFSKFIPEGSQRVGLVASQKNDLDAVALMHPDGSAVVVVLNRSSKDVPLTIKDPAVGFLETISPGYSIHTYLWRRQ
As to the kind of experiment: Glucocerebrosidase (Gcase) activation assay with 4-methylumbelliferyl-beta-D-glucopyranoside substrate, saposin C and phosphatidylserine/triton micelles, fluorescence readout. The format is biochemical. To be noted: Table 3A. As to the method: The ability of exemplary compounds to activate glucocerebrosidase (Gcase) was measured.
A 484 μL aliquot of a 1.0 mg/mL solution of phosphatidylserine (PS) (Sigma P7769) in chloroform was evaporated under a stream of nitrogen for 1 hour. The lipid film was dissolved over 4 minutes of vigorous vortexing in 40 mL of 176 mM K2HPO4/50 mM citric acid (pH 4.7) containing 7.5 μL of triton X-100, resulting in a mixed micellar preparation with a composition of 0.32 mM triton and 0.37 mol % PS. 4-Methylumbelliferyl-beta-D-glucopyranoside (ACROS-337025000) was dissolved in the micellar solution to a final concentration of 2 mM for use as the reaction substrate.
Test compounds were diluted to the desired concentrations with dimethylsulfoxide (DMSO) from 10 mM stocks, and 0.41 μL of the DMSO compound mixture was added to 100 μL of micellar solution containing 10 nM GCase and 100 nM saposin C (Enzo ALX-201-262-C050). Pre-incubation was allowed to occur for 30 minutes at room temperature, after which the reaction was initiated by combining 25 μL of substrate solution with 25 μL of compound/GCase/saposin mixture. The reaction proceeded for 15 minutes at room temperature and was stopped by adding 150 μL of 1M glycine, pH 12.5. The endpoint of the reaction was monitored by measuring fluorescence intensity (excitation: 365 nm; emission: 440 nm) on a SpectraMax i3 instrument (Molecular Devices). Test compounds were screened at 1.0 and 0.1 μM final concentration, and subsequent 8-point dose response curves were obtained using 3-fold dilutions from a maximum final concentration of 5 μM.

Consider `Cc1cc(-c2cccnc2)nc2c(C(=O)NC(C3CC3)C(F)(F)F)cnn12` (centres unmarked) [III-35], for which the “Percent Gcase Activation, 0.1 μM Test Compound” value is “** (Gcase activation in the range of 10% up to 20%)” and the “Percent Gcase Activation, 1 μM Test Compound” value was “+++ (Gcase activation greater than 60%)”.
Regarding `Cc1cc(-c2ccccn2)nc2c(C(=O)NC(C3CC3)C(F)(F)F)cnn12` (centres unmarked) [III-36], the “Percent Gcase Activation, 0.1 μM Test Compound” value was “*** (greater than 20% Gcase activation)” and the “Percent Gcase Activation, 1 μM Test Compound” value was “+++ (Gcase activation greater than 60%)”.
`Cc1cc(-c2cccnc2)nc2c(C(=O)N[C@H](C)c3ccc(Cl)cc3)cnn12` [III-37]: the “Percent Gcase Activation, 0.1 μM Test Compound” value is reported as “** (Gcase activation in the range of 10% up to 20%)” and the “Percent Gcase Activation, 1 μM Test Compound” value is “+++ (Gcase activation greater than 60%)”.
For `Cc1cc(-c2cccnc2)nc2c(C(=O)N[C@H]3CC[C@H](OC(C)(C)C)CC3)cnn12` [III-38] the same measures were “* (less than 10% Gcase activation)” and “+ (less than 30% Gcase activation)”.
As for `Cc1cc(-c2cccnc2)nc2c(C(=O)N[C@H]3CC[C@H](OCC(C)C)CC3)cnn12` [III-39], the “Percent Gcase Activation, 0.1 μM Test Compound” value was “** (Gcase activation in the range of 10% up to 20%)” and the “Percent Gcase Activation, 1 μM Test Compound” value is reported as “+++ (Gcase activation greater than 60%)”.
For `CCCO[C@H]1CC[C@H](NC(=O)c2cnn3c(C)cc(-c4cccnc4)nc23)CC1` [III-40], the “Percent Gcase Activation, 0.1 μM Test Compound” value is “* (less than 10% Gcase activation)” and the “Percent Gcase Activation, 1 μM Test Compound” value is “+ (less than 30% Gcase activation)”.
The like results for `Cc1cc(-c2cccnc2)nc2c(C(=O)NC(C(C)C)C(F)(F)F)cnn12` (centres unmarked) [III-41] were, in that order, “** (Gcase activation in the range of 10% up to 20%)” and “+++ (Gcase activation greater than 60%)”.
For `CCC(NC(=O)c1cnn2c(C)cc(-c3cccnc3)nc12)C(F)(F)F` (centres unmarked) [III-42] the same measures were “* (less than 10% Gcase activation)” and “+++ (Gcase activation greater than 60%)”.
The like results for `Cc1cc(-c2cccnc2)nc2c(C(=O)NC(C)C(F)(F)F)cnn12` (centres unmarked) [III-43] were, in that order, “* (less than 10% Gcase activation)” and “++ (Gcase activation in the range of 30% up to 60%)”.
For `Cc1cc(NC2CC2)nc2c(C(=O)NC(C3CC3)C(F)(F)F)cnn12` (centres unmarked) [III-44], the “Percent Gcase Activation, 0.1 μM Test Compound” value was “*** (greater than 20% Gcase activation)” and the “Percent Gcase Activation, 1 μM Test Compound” value is “+++ (Gcase activation greater than 60%)”.
As for `Cc1cc(Cl)nc2c(C(=O)NC(C3CC3)C(F)(F)F)cnn12` (centres unmarked) [III-45], the “Percent Gcase Activation, 0.1 μM Test Compound” value was “*** (greater than 20% Gcase activation)” and the “Percent Gcase Activation, 1 μM Test Compound” value is reported as “+++ (Gcase activation greater than 60%)”.
For `COCc1cc(-c2ccc(F)cc2)nc2c(C(=O)N[C@@H](C)C3CC3)cnn12` [III-46] the same measures were “* (less than 10% Gcase activation)” and “++ (Gcase activation in the range of 30% up to 60%)”.
The like results for `COCc1cc(-c2ccc(F)cc2)nc2c(C(=O)NC(C)(C)C3CC3)cnn12` [III-47] were, in that order, “** (Gcase activation in the range of 10% up to 20%)” and “+++ (Gcase activation greater than 60%)”.
In the case of `CCc1cc(-c2ccccn2)n2ncc(C(=O)NC(C)C3CC3)c2n1` (centres unmarked) [III-48], the “Percent Gcase Activation, 0.1 μM Test Compound” value is listed as “* (less than 10% Gcase activation)” and the “Percent Gcase Activation, 1 μM Test Compound” value was “++ (Gcase activation in the range of 30% up to 60%)”.
For `CCc1cc(-c2ccccn2)nc2c(C(=O)NC(C)C3CC3)cnn12` (centres unmarked) [III-49] the same measures were “* (less than 10% Gcase activation)” and “+++ (Gcase activation greater than 60%)”.
For the compound `Cc1cc(-c2ccccn2)nc2c(C(=O)NC(C)C(F)(F)F)cnn12` (centres unmarked) [III-50], the “Percent Gcase Activation, 0.1 μM Test Compound” value is “** (Gcase activation in the range of 10% up to 20%)” and the “Percent Gcase Activation, 1 μM Test Compound” value is on record as “+++ (Gcase activation greater than 60%)”.
The like results for `CCc1cc(-c2ccccn2)n2ncc(C(=O)NC(C)C(F)(F)F)c2n1` (centres unmarked) [III-51] were, in that order, “* (less than 10% Gcase activation)” and “+ (less than 30% Gcase activation)”.
For `CCc1cc(-c2ccccn2)nc2c(C(=O)NC(C)C(F)(F)F)cnn12` (centres unmarked) [III-52] the same measures were “* (less than 10% Gcase activation)” and “+++ (Gcase activation greater than 60%)”.
Regarding `COc1cccc(-c2cc(C)n3ncc(C(=O)NC(C)C(F)(F)F)c3n2)c1` (centres unmarked) [III-55], the “Percent Gcase Activation, 0.1 μM Test Compound” value is “*** (greater than 20% Gcase activation)” and the “Percent Gcase Activation, 1 μM Test Compound” value is listed as “+++ (Gcase activation greater than 60%)”.
Consider `Cc1cc(-c2cccc(F)c2)nc2c(C(=O)N[C@@H](C)C3CC3)cnn12` [III-56], for which the “Percent Gcase Activation, 0.1 μM Test Compound” value is “*** (greater than 20% Gcase activation)” and the “Percent Gcase Activation, 1 μM Test Compound” value is “+++ (Gcase activation greater than 60%)”.
The like results for `COc1cccc(-c2cc(C)n3ncc(C(=O)N[C@@H](C)C4CC4)c3n2)c1` [III-57] were, in that order, “*** (greater than 20% Gcase activation)” and “+++ (Gcase activation greater than 60%)”.
For `Cc1cc(N2CCOCC2)nc2c(C(=O)NC(C)C3CC3)cnn12` (centres unmarked) [III-58], the “Percent Gcase Activation, 0.1 μM Test Compound” value was “* (less than 10% Gcase activation)” and the “Percent Gcase Activation, 1 μM Test Compound” value is “+ (less than 30% Gcase activation)”.
Regarding `Cc1cc(N2CCOCC2)nc2c(C(=O)NC(C)(C)C3CC3)cnn12` [III-59], the “Percent Gcase Activation, 0.1 μM Test Compound” value was “* (less than 10% Gcase activation)” and the “Percent Gcase Activation, 1 μM Test Compound” value is recorded as “++ (Gcase activation in the range of 30% up to 60%)”.
For `Cc1cc(N2CCC(F)(F)CC2)nc2c(C(=O)NC(C)C3CC3)cnn12` (centres unmarked) [III-60] the same measures were “* (less than 10% Gcase activation)” and “++ (Gcase activation in the range of 30% up to 60%)”.
Consider `Cc1cc(N2CCCC(F)(F)C2)nc2c(C(=O)NC(C)C3CC3)cnn12` (centres unmarked) [III-61], for which the “Percent Gcase Activation, 0.1 μM Test Compound” value is reported as “*** (greater than 20% Gcase activation)” and the “Percent Gcase Activation, 1 μM Test Compound” value was “+++ (Gcase activation greater than 60%)”.
For `Cc1cc(-c2cccc(Cl)n2)nc2c(C(=O)NC(C)(C)C3CC3)cnn12` [III-62] the same measures were “*** (greater than 20% Gcase activation)” and “+++ (Gcase activation greater than 60%)”.
For `C#CC(C)(C)NC(=O)c1cnn2c(C)cc(-c3cccc(Cl)n3)nc12` [III-63], the “Percent Gcase Activation, 0.1 μM Test Compound” value was “** (Gcase activation in the range of 10% up to 20%)” and the “Percent Gcase Activation, 1 μM Test Compound” value was “++ (Gcase activation in the range of 30% up to 60%)”.
Turning to `Cc1cc(-c2cccc(Cl)c2)nc2c(C(=O)NC(C)C(F)(F)F)cnn12` (centres unmarked) [III-64], the “Percent Gcase Activation, 0.1 μM Test Compound” value was “*** (greater than 20% Gcase activation)” and the “Percent Gcase Activation, 1 μM Test Compound” value is recorded as “+++ (Gcase activation greater than 60%)”.
For `Cc1cc(-c2cccc(Cl)c2)nc2c(C(=O)N[C@@H](C)C3CC3)cnn12` [III-65] the same measures were “*** (greater than 20% Gcase activation)” and “+++ (Gcase activation greater than 60%)”.
For `Cc1cc(N2CCCC(F)(F)C2)nc2c(C(=O)NC(C3CC3)C(F)(F)F)cnn12` (centres unmarked) [III-66] the same measures were “*** (greater than 20% Gcase activation)” and “+++ (Gcase activation greater than 60%)”.
For `Cc1cc(N2CCC(F)(F)C2)nc2c(C(=O)NC(C3CC3)C(F)(F)F)cnn12` (centres unmarked) [III-67] the same measures were “*** (greater than 20% Gcase activation)” and “+++ (Gcase activation greater than 60%)”.
